Where two headings read alike, the source gives them in different places.
Assays:
CaCYP51 [1] = target: T1, CaCYP51 (Candida albicans, UniProt P10613); test: biochemical; details: for IC50: 1 μM CaCYP51, lanosterol as substrate, curve-fitted, read-out: CaCYP51 IC50; for Ki: Morrison equation estimates, read-out: Kapp/i from the inhibition profiles with CaCYP51
T1 construct: made in house; host or cells: Escherichia coli
Protocol: […]. […] […]. CYP51 reconstitution assays. IC50 values were determined for individual azole compounds18, 30 using lanosterol as substrate. Azoles were introduced using 2.5 μL of stock solutions in DMSO. CaCYP51 assays contained 1 μM CaCYP51 and 2 μM Homo sapiens cytochrome P450 reductase (HsCPR – UniProtKB accession number P16435) and were incubated for 20 min at 37 °C. HsCYP51 assays contained 0.25 μM Δ60HsCYP51 and 1 μM HsCPR and were incubated for 10 min at 37 °C. Each IC50 experiment was performed in duplicate.

Δ60HsCYP51 [2] = target: T2, Δ60HsCYP51 (Homo sapiens, UniProt Q16850); test: CYP51 reconstitution assay (IC50), Δ60HsCYP51; type: biochemical; details: 0.25 μM Δ60HsCYP51, lanosterol as substrate; read-out: IC50 Δ60HsCYP51 (Hs)
T2 sequence (Q16850 61-509, stated change not applied): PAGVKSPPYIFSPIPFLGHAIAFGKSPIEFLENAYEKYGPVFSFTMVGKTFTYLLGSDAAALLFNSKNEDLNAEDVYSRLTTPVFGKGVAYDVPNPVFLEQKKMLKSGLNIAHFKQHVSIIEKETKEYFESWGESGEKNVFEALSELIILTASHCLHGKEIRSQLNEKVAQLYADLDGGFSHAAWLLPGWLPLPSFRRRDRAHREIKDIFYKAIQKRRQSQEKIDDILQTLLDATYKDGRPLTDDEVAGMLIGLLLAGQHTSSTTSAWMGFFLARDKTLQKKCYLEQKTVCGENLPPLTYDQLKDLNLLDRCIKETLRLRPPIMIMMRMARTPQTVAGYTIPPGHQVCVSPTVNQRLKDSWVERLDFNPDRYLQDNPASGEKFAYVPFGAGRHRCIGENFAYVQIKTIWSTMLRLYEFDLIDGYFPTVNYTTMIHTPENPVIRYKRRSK
T2 sequence (P16435 2-677, stated change not applied, further chain): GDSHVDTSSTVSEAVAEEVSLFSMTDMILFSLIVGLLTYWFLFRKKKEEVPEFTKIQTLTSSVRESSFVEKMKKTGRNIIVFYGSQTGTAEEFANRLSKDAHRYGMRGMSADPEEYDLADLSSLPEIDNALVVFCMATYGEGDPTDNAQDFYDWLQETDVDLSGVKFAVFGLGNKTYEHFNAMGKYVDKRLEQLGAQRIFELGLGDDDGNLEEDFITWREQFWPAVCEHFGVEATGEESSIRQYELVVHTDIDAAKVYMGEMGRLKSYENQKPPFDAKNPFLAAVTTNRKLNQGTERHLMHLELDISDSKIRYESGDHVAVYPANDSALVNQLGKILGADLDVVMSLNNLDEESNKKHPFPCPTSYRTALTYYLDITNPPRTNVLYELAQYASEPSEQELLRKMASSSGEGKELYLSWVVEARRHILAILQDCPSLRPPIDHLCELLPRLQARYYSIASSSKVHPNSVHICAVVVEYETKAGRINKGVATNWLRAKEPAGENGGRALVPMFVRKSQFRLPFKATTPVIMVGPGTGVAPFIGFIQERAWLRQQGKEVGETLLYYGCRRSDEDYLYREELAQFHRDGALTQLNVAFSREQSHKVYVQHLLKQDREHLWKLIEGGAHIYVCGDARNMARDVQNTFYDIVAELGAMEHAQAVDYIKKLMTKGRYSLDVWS
Protocol: CYP51 reconstitution assays. […] Azoles were introduced using 2.5 μL of stock solutions in DMSO. […] Each IC50 experiment was performed in duplicate.

C. albicans CA14 [3] = test: Sterol profile analysis by GC-MS, strain CA14; type: cell-based, Candida albicans; details: CA14, % of total sterols, half the MIC (fluconazole 0.06, 5 d 0.06, 5 f 0.015, 12 c 0.5 μg/mL), 18 h
Protocol: (§1) Sterols were then extracted and analysed by GC‐MS and sterol profiles (% of the total sterol extracted) were determined (Table 6).
(§2) Sterol profile analysis of C. albicans strains. […] Cells were pelleted and washed with ddH2O and non‐saponifiable lipids were extracted using methanolic KOH as reported previously.41 Samples were dried in a vacuum centrifuge and were derivatised by the addition of 100 μL 90 % BSTFA / 10 % TMCS (Sigma), 200 μL anhydrous pyridine (Sigma) and heating for 2 h at 80 °C. TMS‐derivatised sterols were analysed and identified by using GC/MS (Thermo 1300 GC coupled to a Thermo ISQ mass spectrometer, Thermo Scientific) with reference to retention times and fragmentation spectra for known standards. GC/MS data files were analysed using Xcalibur software (Thermo Scientific) to determine sterol profiles for all isolates and to integrate peak areas.

C. albicans CA14 [4] = test: MIC, CLSI M27-S4 broth dilution, strain CA14; type: cell-based, Candida albicans; details: Candida albicans, CA14, 48 hours
Protocol: Susceptibility testing of C. albicans strains. […] Stock solutions of each agent were prepared in DMSO. […] The final testing concentrations for all compounds ranged from 0.03–16 μg mL^−1.

C. albicans SC5314 [5] = test: MIC, CLSI M27-S4 broth dilution, strain SC5314; type: cell-based, Candida albicans; details: Candida albicans, SC5314, 48 hours
Protocol: The susceptibilities of the SC5314 and CA14C. albicans (azole sensitive) strains to all novel azole derivatives (5, 7 and 12) were determined (Table 3) using the standardized CLSI M27‐S4 broth dilution method.28
Susceptibility testing of C. albicans strains. […] Stock solutions of each agent were prepared in DMSO. Further dilutions were made in RPMI‐1640, and the final concentration of DMSO was 1 % (v/v). The final testing concentrations for all compounds ranged from 0.03–16 μg mL^−1.

Δ60HsCYP51 [6] = target: T2, Δ60HsCYP51; test: Azole ligand binding titration (type II difference spectra, Kd), Δ60HsCYP51; details: for Kd: 3 μM native Δ60HsCYP51, mean ± SD (12 c n=6), read-out: K d Δ60HsCYP51 (Hs); for Type of difference binding spectra with Δ60HsCYP51: titration with Δ60HsCYP51
Protocol: Recombinant CYP51 protein studies.
(§3) Dissociation constant (K d). The K d for each CYP51‐azole complex was determined by non‐linear regression (Levenberg‐Marquardt algorithm) using a rearrangement of the Morrison equation for tight ligand binding.34 Where ligand binding was weaker, the Michaelis‐Menten equation was used to fit the data (Figure S5). K d values were determined for each of the three replicate titrations per azole compound and then mean K d values and standard deviations calculated.

CaCYP51 [7] = target: T1, CaCYP51; test: biochemical; type: binding; details: 3 μM native CaCYP51, mean of three replicates ± SD; read-out: K d CaCYP51
Text: […]. There were no signs of compound insolubility (visible or rising background absorbance) during the ligand titrations. […] […].
The rearranged Morrison equation34 gave the best fit to the ligand saturation curves against CaCYP51 (Figure 5) indicating the selected compounds bound tightly to the purified CaCYP51 protein in free solution. Likewise the rearranged Morrison equation34 gave the best fit for binding 5 d and 5 f to Δ60HsCYP51, thus indicating tight binding in free solution (Figure 5). […].
Recombinant CYP51 protein studies. […] All azole ligand binding determinations were performed in triplicate, except the binding of compound 12 c with Δ60HsCYP51 which was performed six times. CYP51 protein samples were diluted with 0.1 M Tris⋅HCl (pH 8.1) and 25 % (w/v) glycerol to the required concentration.
as §3

C. albicans SC5314 [8] = test: Sterol profile analysis by GC-MS, strain SC5314; type: cell-based, Candida albicans; details: SC5314, % of total sterols, half the MIC (fluconazole 0.06, 5 d 0.06, 5 f 0.015, 12 c 0.5 μg/mL), 18 h
Protocol: as §1, §2

Δ60HsCYP51 [9] = target: T2, Δ60HsCYP51; details: read-out: K d Δ60HsCYP51 (Hs); cited from earlier work
CaCYP51 [10] = target: T1, CaCYP51; details: 1 μM CaCYP51 ref 21; read-out: IC50 CaCYP51 (Ca) (converted); cited from earlier work
Δ60HsCYP51 [11] = target: T2, Δ60HsCYP51; details: cited from earlier work; for IC50: read-out: IC50 Δ60HsCYP51 (Hs), 0.4 μM Δ60HsCYP51 ref 21

T1 sequence (P10613 whole entry): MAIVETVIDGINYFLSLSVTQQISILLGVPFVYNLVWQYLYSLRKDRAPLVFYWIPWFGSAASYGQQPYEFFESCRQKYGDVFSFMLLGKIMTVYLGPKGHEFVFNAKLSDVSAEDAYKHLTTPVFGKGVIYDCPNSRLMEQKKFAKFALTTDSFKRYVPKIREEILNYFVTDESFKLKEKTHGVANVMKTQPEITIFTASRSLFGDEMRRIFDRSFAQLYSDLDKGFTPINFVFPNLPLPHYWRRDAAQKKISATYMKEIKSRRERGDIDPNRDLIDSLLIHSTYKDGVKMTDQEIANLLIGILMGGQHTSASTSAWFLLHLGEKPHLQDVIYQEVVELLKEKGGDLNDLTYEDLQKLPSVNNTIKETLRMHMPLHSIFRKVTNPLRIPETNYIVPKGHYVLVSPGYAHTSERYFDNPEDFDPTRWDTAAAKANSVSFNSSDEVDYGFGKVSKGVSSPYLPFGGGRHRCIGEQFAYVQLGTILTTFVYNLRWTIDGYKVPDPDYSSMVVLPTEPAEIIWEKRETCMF

Row | IC50 (CaCYP51 [1]) | Ki (CaCYP51 [1]) | IC50 (Δ60HsCYP51 [2]) | MIC (C. albicans CA14 [4]; 80 % reduction in turbidity) | MIC (C. albicans CA14 [4]; value in brackets) | MIC (C. albicans SC5314 [5]; 80 % reduction in turbidity) | MIC (C. albicans SC5314 [5]; value in brackets) | melting point | Kd (Δ60HsCYP51 [6]) | Type of difference binding spectra with Δ60HsCYP51 (Δ60HsCYP51 [6]) | Kd (CaCYP51 [7]) | Compound | Sterol composition: diol (14α‐methyl ergosta‐8,24(28)‐dien‐3,6‐diol) (C. albicans CA14 [3]) | Sterol composition: eburicol (C. albicans CA14 [3]) | Sterol composition: ergosterol (C. albicans CA14 [3]) | Sterol composition: lanosterol (C. albicans CA14 [3]) | Sterol composition: total 14α‐methylated sterols (C. albicans CA14 [3]) | Sterol composition: diol (14α‐methyl ergosta‐8,24(28)‐dien‐3,6‐diol) (C. albicans SC5314 [8]) | Sterol composition: eburicol (C. albicans SC5314 [8]) | Sterol composition: ergosterol (C. albicans SC5314 [8]) | Sterol composition: lanosterol (C. albicans SC5314 [8]) | other results
1 | 390 nM | 160 nM | 3370 nM | 0.125 µg/mL | 0.33 µM | 0.125 µg/mL | 0.33 µM | 160 to 162 °C | 45 ± 13 nM | type II difference binding spectra | 17 ± 5 nM | O=C(NCc1ccc(Cl)cc1)C(Cn1ccnc1)c1ccc(Cl)cc1 (stereo not drawn) [Compound 5 d, N‐(4‐Chlorobenzyl)‐2‐(4‐chlorophenyl)‐3(1H‐imidazol‐1‐yl)propanamide] | 8.2±6.0% | 26.4±5.0% | 7.8±6.5% | 40.4±2.2% | 90.0% | 17.6±7.1% | 20.5±4.4% | 2.7±2.3% | 41.0±5.5% | Sterol composition: total 14α‐methylated sterols (C. albicans SC5314 [8]): 95.8%
2 | 460 nM | 200 nM | 3730 nM | < 0.03 µg/mL | < 0.07 µM | < 0.03 µg/mL | < 0.07 µM | 148 to 150 °C | 74 ± 13 nM | type II difference binding spectra | 62 ± 17 nM | O=C(NCc1ccc(Cl)cc1Cl)C(Cn1ccnc1)c1ccc(Cl)cc1 (stereo not drawn) [Compound 5 f, 2‐(4‐Chlorophenyl)‐N‐(2,4‐dichlorobenzyl)‐3‐(1H‐imidazol‐1‐yl)propanamide] | 7.5±4.6% | 26.1±0.1% | 4.3±0.5% | 43.6±1.8% | 77.2% | 11.7±1.4% | 21.0±3.3% | 9.1±5.5% | 38.6±3.6% | Sterol composition: total 14α‐methylated sterols (C. albicans SC5314 [8]): 89.3%
3 | 330 nM | 110 nM | 152000 nM | 1 µg/mL | 2.02 µM | 1 µg/mL | 2.02 µM | 122 to 124 °C | 923 ± 509 nM | type II difference binding spectra | 43 ± 18 nM | O=C(NCc1ccc(NS(=O)(=O)c2ccc(Cl)cc2)cc1)C(Cn1cncn1)c1ccccc1 (stereo not drawn) [Compound 12 c, N‐(4‐((4‐chlorophenyl)sulfonamido)benzyl)‐2‐phenyl‐3‐(1H‐1,2,4‐triazol‐1‐yl)propanamide] | 9.2±1.2% | 22.4±1.1% | 3.5±1.3% | 43.6±1.5% | 93.3% | 7.2±5.2% | 14.0±3.5% | 24.9±5.5% | 34.5±2.9% | Sterol composition: total 14α‐methylated sterols (C. albicans SC5314 [8]): 70.6%

Second part, the compound before the results:

Row | Compound | IC50 (CaCYP51 [1]) | Ki (CaCYP51 [1]) | IC50 (Δ60HsCYP51 [2]) | MIC (C. albicans CA14 [4]; 80 % reduction in turbidity) | MIC (C. albicans CA14 [4]; value in brackets) | MIC (C. albicans SC5314 [5]; 80 % reduction in turbidity) | MIC (C. albicans SC5314 [5]; value in brackets) | melting point | Kd (Δ60HsCYP51 [6]) | Type of difference binding spectra with Δ60HsCYP51 (Δ60HsCYP51 [6]) | Kd (CaCYP51 [7]) | Sterol composition: diol (14α‐methyl ergosta‐8,24(28)‐dien‐3,6‐diol) (C. albicans CA14 [3]) | Sterol composition: eburicol (C. albicans CA14 [3]) | Sterol composition: ergosterol (C. albicans CA14 [3]) | Sterol composition: lanosterol (C. albicans CA14 [3]) | Sterol composition: total 14α‐methylated sterols (C. albicans CA14 [3]) | Sterol composition: diol (14α‐methyl ergosta‐8,24(28)‐dien‐3,6‐diol) (C. albicans SC5314 [8]) | Sterol composition: eburicol (C. albicans SC5314 [8]) | Sterol composition: ergosterol (C. albicans SC5314 [8]) | Sterol composition: lanosterol (C. albicans SC5314 [8]) | other results
4 | CCC(C)n1ncn(-c2ccc(N3CCN(c4ccc(OCC5COC(Cn6cncn6)(c6ccc(Cl)cc6Cl)O5)cc4)CC3)cc2)c1=O (stereo not drawn) [itraconazole] | – | – | – | – | – | – | – | – | – | – | – | – | – | – | – | – | – | – | – | – | Kd (Δ60HsCYP51 [9]): 92 nM; IC50 (CaCYP51 [10]): 400 nM; IC50 (Δ60HsCYP51 [11]): 70000 nM
5 | CC(=O)N1CCN(c2ccc(OCC3COC(Cn4ccnc4)(c4ccc(Cl)cc4Cl)O3)cc2)CC1 (stereo not drawn) [ketoconazole] | – | – | – | – | – | – | – | – | – | – | – | – | – | – | – | – | – | – | – | – | IC50 (CaCYP51 [10]): 500 nM; IC50 (Δ60HsCYP51 [11]): 4500 nM
6 | O[C@@](Cn1cnnn1)(c1ccc(F)cc1F)C(F)(F)c1ccc(-c2ccc(OCC(F)(F)F)cc2)cn1 [oteseconazole] | – | – | – | – | – | – | – | – | – | – | – | – | – | – | – | – | – | – | – | – | Inhibition of Δ60HsCYP51 activity (Δ60HsCYP51 [11]; at concentrations up to 50 μM ref 31): did not inhibit

— publication PMC7496091, “Small‐Molecule Inhibitors Targeting Sterol 14α‐Demethylase (CYP51): Synthesis, Molecular Modelling and Evaluation Against Candida albicans” (Chemmedchem, 2020)
